Reference: the supplement of paper PMC10307832

Legend:
Test in all cases: relative viability (nuclei count vs DMSO), 5 days (fraction); higher = more cells survive
[1] = compound: C[C@@H](N)c1ccc(C(=O)Nc2ccnc3[nH]ccc23)cc1 + CCNC(=O)c1noc(-c2cc(C(C)C)c(O)cc2O)c1-c1ccc(CN2CCOCC2)cc1 [Luminespib] (partner 0.01 µM)
Outline: (§1)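 Five library-drug doses in √10 steps were combined with a fixed anchor-drug dose, or a single drug was given alone, by pin tool to lung cancer cell lines in 1536-well plates the day after seeding. Nuclei were stained and counted after 5 days. Relative viability is the nuclei count in treated wells over that in vehicle wells, taken as the median of duplicate plates.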

[2] = compound: C[C@@H](N)c1ccc(C(=O)Nc2ccnc3[nH]ccc23)cc1 + CS(=O)(=O)N1CCN(Cc2cc3nc(-c4cccc5[nH]ncc45)nc(N4CCOCC4)c3s2)CC1 [Pictilisib] (partner 1 µM)
Outline: as §1

Tanzisertib + Trametinib = compound: O[C@H]1CC[C@H](Nc2ncc3nc(Nc4c(F)cc(F)cc4F)n([C@H]4CCOC4)c3n2)CC1 [Tanzisertib] + CC(=O)Nc1cccc(-n2c(=O)n(C3CC3)c(=O)c3c(Nc4ccc(I)cc4F)n(C)c(=O)c(C)c32)c1 [Trametinib] (partner 0.02 µM)
Outline: as §1

Tanzisertib + Luminespib = compound: O[C@H]1CC[C@H](Nc2ncc3nc(Nc4c(F)cc(F)cc4F)n([C@H]4CCOC4)c3n2)CC1 [Tanzisertib] + CCNC(=O)c1noc(-c2cc(C(C)C)c(O)cc2O)c1-c1ccc(CN2CCOCC2)cc1 [Luminespib] (partner 0.01 µM)
Outline: as §1

UMC-11
relative viability ([1]; first compound 0.04 µM): 1.08 | relative viability ([1]; first compound 0.1265 µM): 1.06 | relative viability ([1]; first compound 0.4 µM): 1.04 | relative viability ([1]; first compound 1.265 µM): 0.989 | relative viability ([1]; first compound 4 µM): 0.826 | relative viability ([2]; first compound 0.04 µM): 0.715 | relative viability ([2]; first compound 0.1265 µM): 0.759 | relative viability ([2]; first compound 0.4 µM): 0.93 | relative viability ([2]; first compound 1.265 µM): 0.177 | relative viability ([2]; first compound 4 µM): 0.767 | relative viability (Tanzisertib + Trametinib; first compound 0.08 µM): 0.735 | relative viability (Tanzisertib + Trametinib; first compound 0.253 µM): 0.695 | relative viability (Tanzisertib + Trametinib; first compound 0.8 µM): 0.759 | relative viability (Tanzisertib + Trametinib; first compound 2.53 µM): 0.719 | relative viability (Tanzisertib + Trametinib; first compound 8 µM): 0.764 | relative viability (Tanzisertib + Luminespib; first compound 0.08 µM): 1.1 | relative viability (Tanzisertib + Luminespib; first compound 0.253 µM): 1 | relative viability (Tanzisertib + Luminespib; first compound 0.8 µM): 0.946 | relative viability (Tanzisertib + Luminespib; first compound 2.53 µM): 1.08 | relative viability (Tanzisertib + Luminespib; first compound 8 µM): 1.03
